Measured values as given in patent US8940769B2, “Biaryl benzoimidazole derivatives and pharmaceutical composition comprising the same” (Daewoong Pharmaceutical Co., Ltd., priority 2006, dated 2015).

Target: T1, human vanilloid receptor VR-1 (hVR1) (Homo sapiens, UniProt Q8NER1)
T1 construct: expressed in transfected cells; host or cells: HEK293 Tet-on cells (hVR1-HEK293), expression induced with doxycycline
Experiment: Calcium influx test of vanilloid receptor (capsaicin-induced, Fluo-3/AM, hVR1-HEK293 cells)
Type: cell-based
Details: for inhibition at 0.2 µM / Inhibitory effect (%) on calcium influx: single concentration of compound 200 nM, 1 μM capsaicin; for inhibition at 0.2 µM: read-out: Inhibitory effect (%) on calcium influx; for IC50: calcium influx induced by 1 μM capsaicin, read-out: Inhibitory effect IC50 (nM) on calcium influx
Method: In order to measure an activity of the biaryl benzoimidazole derivative of the invention as an antagonist, a calcium influx test was performed.
An hVR1-HEK293 cell line is a cell line, in which a Human Embryonic Kidney (HEK) 293 Tet-on cell is transformed with a human vanilloid-1 gene (pTRE2hyg-hVR1, 7.8 kb). The cell line can regulate a VR-1 expression, depending on the administration of a tetracycline analogue, doxycycline. At two days before the calcium influx test, the cell line was cultured in media containing doxycycline to induce the VR-1 expression, and then used. First, the hVR1-HEK293 cells were cultured in T75 flasks to have a density of about 80%, and then detached from the bottom of the flasks by using trypsin. The detached cells were centrifuged and collected. Then, the cells were suspended in media containing 1 μg/mL doxycycline, and diluted to have a concentration of 2×10^5 to 4×10^5 cells/mL. 100 μL of the suspended cells were added to each well of 96-well black plate, cultured at 37° C. and 5% CO2 cell incubator for two days, and then used in the calcium influx test.
The compound was dissolved in dimethyl sulfoxide (DMSO), and then used for the calcium influx test.
In order to measure the calcium influx […], the cells were cultured in a solution containing Fluo-3/AM, which is a calcium indicator, at 37° C. for 90 minutes, so as to be permeated by a fluorescent dye. […] 193 μL D-PBS were added to each well, and then the compound was added thereto in various concentrations. To measure an activity as an antagonist, the cells were treated with 1 μM capsaicin to stimulate the calcium influx. The inhibitory effect of the compound when calcium influx was induced by 1 μM capsaicin was measured depending on its concentration using a fluorescence spectrometer, and the obtained data were substituted into a hill equation to analyze the values.
The inhibitory effect on calcium influx was measured with a single concentration of the compounds of the invention (200 nM), and the result thereof are shown in Table 2.

T1 sequence (Q8NER1 whole entry): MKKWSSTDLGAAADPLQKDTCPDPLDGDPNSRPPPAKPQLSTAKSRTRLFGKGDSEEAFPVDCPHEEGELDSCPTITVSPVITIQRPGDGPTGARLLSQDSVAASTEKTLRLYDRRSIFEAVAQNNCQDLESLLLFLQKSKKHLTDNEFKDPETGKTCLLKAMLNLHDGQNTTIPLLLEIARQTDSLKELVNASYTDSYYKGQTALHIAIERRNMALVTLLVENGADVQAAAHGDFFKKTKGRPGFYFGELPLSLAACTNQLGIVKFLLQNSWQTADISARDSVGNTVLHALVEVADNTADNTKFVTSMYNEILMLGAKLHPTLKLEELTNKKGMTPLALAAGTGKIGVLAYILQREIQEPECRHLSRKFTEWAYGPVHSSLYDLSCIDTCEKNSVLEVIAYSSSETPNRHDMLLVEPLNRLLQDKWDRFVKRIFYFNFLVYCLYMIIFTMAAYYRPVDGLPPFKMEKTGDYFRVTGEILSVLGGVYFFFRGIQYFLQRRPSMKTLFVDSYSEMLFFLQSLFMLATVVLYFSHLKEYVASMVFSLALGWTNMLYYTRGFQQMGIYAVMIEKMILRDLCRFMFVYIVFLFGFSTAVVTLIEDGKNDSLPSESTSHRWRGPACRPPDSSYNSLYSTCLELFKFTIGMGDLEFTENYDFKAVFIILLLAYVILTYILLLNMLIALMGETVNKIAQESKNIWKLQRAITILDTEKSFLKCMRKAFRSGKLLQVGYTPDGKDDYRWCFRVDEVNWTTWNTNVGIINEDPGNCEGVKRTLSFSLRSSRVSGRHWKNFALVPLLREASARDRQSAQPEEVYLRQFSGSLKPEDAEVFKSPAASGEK

| SMILES | inhibition at 0.2 µM | IC50 | Inhibitory effect (%) on calcium influx |
| --- | --- | --- | --- |
| OCc1cnc(-c2ccc(-c3nc4ccc(N5CCOCC5)cc4[nH]3)cc2)c(Cl)c1 [Compound 26, {5-chloro-6-[4-(6-morpholin-4-yl-1H-benzoimidazol-2-yl)-phenyl]-pyridin-3-yl}-methanol] | 5% | – | – |
| CN1CCN(c2ccc3nc(-c4ccc(-c5ncc(CO)cc5Cl)cc4)[nH]c3c2)CC1 [Compound 27, (5-chloro-6-{4-[6-(4-methyl-piperazin-1-yl)-1H-benzoimidazol-2-yl]-phenyl}-pyridin-3-yl)-methanol] | 4% | – | – |
| OCc1cnc(-c2ccc(-c3nc4ccc(C(F)(F)F)cc4[nH]3)cc2)c(Cl)c1 [Compound 28, {5-chloro-6-[4-(6-trifluoromethyl-1H-benzoimidazol-2-yl)-phenyl]-pyridin-3-yl}-methanol] | 2.8% | 181 nM | – |
| OCc1cnc(-c2ccc(-c3nc4ccc(Br)cc4[nH]3)cc2)c(Cl)c1 [Compound 30, {6-[4-(6-bromo-1H-benzoimidazol-2-yl)-phenyl]-5-chloro-pyridin-3-yl}-methanol] | 27.8% | 171 nM | – |
| OCc1cnc(-c2ccc(-c3nc4ncc(Br)cc4[nH]3)cc2)c(Cl)c1 [Compound 31, {6-[4-(6-bromo-1H-imidazo[4,5-b]pyridin-2-yl)-phenyl]-5-chloro-pyridin-3-yl}-methanol] | 1.7% | – | – |
| OCc1cnc(-c2ccc(-c3nc4c(Br)cc(C(F)(F)F)cc4[nH]3)cc2)c(Cl)c1 [Compound 32, {6-[4-(4-bromo-6-trifluoromethyl-1H-benzoimidazol-2-yl)-phenyl]-5-chloro-pyridin-3-yl}-methanol] | 6% | – | – |
| OCc1cnc(-c2ccc(-c3nc4c(Br)cc(Br)cc4[nH]3)cc2)c(Cl)c1 [Compound 33, {5-chloro-6-[4-(4,6-dibromo-1H-benzoimidazol-2-yl)-phenyl]-pyridin-3-yl}-methanol] | 4.7% | – | – |
| FC(F)(F)c1ccc2nc(-c3ccc(-c4ncc(CBr)cc4Cl)cc3)[nH]c2c1 [Compound 34, 2-[4-(5-bromomethyl-3-chloro-pyridin-2-yl)-phenyl]-6-trifluoromethyl-1H-benzoimidazole] | 13% | – | – |
| CC(C)(C)c1ccc2nc(-c3ccc(-c4ncc(CBr)cc4Cl)cc3)[nH]c2c1 [Compound 35, 2-[4-(5-bromomethyl-3-chloro-pyridin-2-yl)-phenyl]-6-tert-butyl-1H-benzoimidazole] | 59.6% | – | – |
| Clc1cc(CBr)cnc1-c1ccc(-c2nc3ccc(Br)cc3[nH]2)cc1 [Compound 36, 6-bromo-2-[4-(5-bromomethyl-3-chloro-pyridin-2-yl)-phenyl]-1H-benzoimidazole] | 9.6% | – | – |
| C=Cc1cnc(-c2ccc(-c3nc4ccc(C(F)(F)F)cc4[nH]3)cc2)c(Cl)c1 [Compound 37, 2-[4-(3-chloro-5-vinyl-pyridin-2-yl)-phenyl]-6-trifluoromethyl-1H-benzoimidazole] | 5.3% | – | – |
| C=Cc1cnc(-c2ccc(-c3nc4ccc(C(C)(C)C)cc4[nH]3)cc2)c(Cl)c1 [Compound 38, 6-tert-butyl-2-[4-(3-chloro-5-vinyl-pyridin-2-yl)-phenyl]-1H-benzoimidazole] | 11.7% | – | – |
| C=Cc1cnc(-c2ccc(-c3nc4ccc(Br)cc4[nH]3)cc2)c(Cl)c1 [Compound 39, 6-bromo-2-[4-(3-chloro-5-vinyl-pyridin-2-yl)-phenyl]-1H-benzoimidazole] | 3.1% | – | – |
| C=Cc1cnc(-c2ccc(-c3nc4c(Br)cc(C(F)(F)F)cc4[nH]3)cc2)c(Cl)c1 [Compound 41, 4-bromo-2-[4-(3-chloro-5-vinyl-pyridin-2-yl)-phenyl]-6-trifluoromethyl-1H-benzoimidazole] | -2.1% | – | – |
| C=Cc1cnc(-c2ccc(-c3nc4ccc(Cl)cc4[nH]3)cc2)c(Cl)c1 [Compound 42, 6-chloro-2-[4-(3-chloro-5-vinyl-pyridin-2-yl)-phenyl]-1H-benzoimidazole] | 0.9% | – | – |
| O=C(O)c1cnc(-c2ccc(-c3nc4ccc(C(F)(F)F)cc4[nH]3)cc2)c(Cl)c1 [Compound 43, 5-chloro-6-[4-(6-trifluoromethyl-1H-benzoimidazol-2-yl)-phenyl]-nicotinic acid] | -3.1% | – | – |
| CC(C)(C)c1ccc2nc(-c3ccc(-c4ncc(C(=O)O)cc4Cl)cc3)[nH]c2c1 [Compound 44, 6-[4-(6-tert-butyl-1H-benzoimidazol-2-yl)-phenyl]-5-chloro-nicotinic acid] | -1% | – | – |
| O=C(O)c1cnc(-c2ccc(-c3nc4ccc(Br)cc4[nH]3)cc2)c(Cl)c1 [Compound 45, 6-[4-(6-bromo-1H-benzoimidazol-2-yl)-phenyl]-5-chloro-nicotinic acid] | 3.3% | – | – |
| O=C(O)c1cnc(-c2ccc(-c3nc4ncc(Br)cc4[nH]3)cc2)c(Cl)c1 [Compound 46, 6-[4-(6-bromo-1H-imidazo[4,5-b]pyridin-2-yl)-phenyl]-5-chloro-nicotinic acid] | 7.2% | – | – |
| O=C(O)c1cnc(-c2ccc(-c3nc4c(Br)cc(C(F)(F)F)cc4[nH]3)cc2)c(Cl)c1 [Compound 47, 6-[4-(4-bromo-6-trifluoromethyl-1H-benzoimidazol-2-yl)-phenyl]-5-chloro-nicotinic acid] | 5.7% | – | – |
| COC(=O)c1cnc(-c2ccc(-c3nc4ncc(Br)cc4[nH]3)cc2)c(Cl)c1 [Compound 51, 6-[4-(6-bromo-1H-imidazo[4,5-b]pyridin-2-yl)-phenyl]-5-chloro-nicotinic acid methyl ester] | 1.1% | – | – |
| COC(=O)c1cnc(-c2ccc(-c3nc4c(Br)cc(C(F)(F)F)cc4[nH]3)cc2)c(Cl)c1 [Compound 52, 6-[4-(4-bromo-6-trifluoromethyl-1H-benzoimidazol-2-yl)-phenyl]-5-chloro-nicotinic acid methyl ester] | 20% | – | – |
| CC(=O)OCc1cnc(-c2ccc(-c3nc4ccc(C(C)(C)C)cc4[nH]3)cc2)c(Cl)c1 [Compound 54, acetic acid 6-[4-(6-tert-butyl-1H-benzoimidazol-2-yl)-phenyl]-5-chloro-pyridin-3-yl methyl ester] | 14.6% | 319 nM | – |
| CC(=O)OCc1cnc(-c2ccc(-c3nc4ccc(Br)cc4[nH]3)cc2)c(Cl)c1 [Compound 55, acetic acid 6-[4-(6-bromo-1H-benzoimidazol-2-yl)-phenyl]-5-chloro-pyridin-3-yl methyl ester] | – | – | 0.9% |
| CC(=O)OCc1cnc(-c2ccc(-c3nc4ncc(Br)cc4[nH]3)cc2)c(Cl)c1 [Compound 56, acetic acid 6-[4-(6-bromo-1H-imidazo[4,5-b]pyridin-2-yl)-phenyl]-5-chloro-pyridin-3-yl methyl ester] | – | – | 6.5% |
| CC(=O)OCc1cnc(-c2ccc(-c3nc4c(Br)cc(C(F)(F)F)cc4[nH]3)cc2)c(Cl)c1 [Compound 57, acetic acid 6-[4-(4-bromo-6-trifluoromethyl-1H-benzoimidazol-2-yl)-phenyl]-5-chloro-pyridin-3-yl methyl ester] | – | – | 16.9% |
| O=Cc1cnc(-c2ccc(-c3nc4ccc(C(F)(F)F)cc4[nH]3)cc2)c(Cl)c1 [Compound 58, 5-chloro-6-[4-(6-trifluoromethyl-1H-benzoimidazol-2-yl)-phenyl]-pyridine-3-carbaldehyde] | 39.1% | 94.5 nM | – |
